The target in one data set is T1, BSEP (Homo sapiens, UniProt O95342).
T1 construct: ATP-dependent uptake of radiolabelled probe substrate
Kind of data set: Bile Salt Export Pump (BSEP) Assay, Sf9 insect cell vesicles expressing BSEP. It counts as in vitro ADME. Particulars: 10 μM test compound, probe substrate 1 μM [3H]-taurocholic acid, 15 min incubation. As to the method: • 1. A stock solution was prepared with the test article (Sponsor compound) in DMSO. • 2. All final assay solutions of probe substrate, reference inhibitor or test article contain 0.5% (v/v) DMSO (vehicle control). • 3. Test article concentrations in transport study were specified in the Summary Table of Experimental Conditions of this protocol.
• 1. Bovine Serum Albumin (BSA) • 2. Dimethyl sulfoxide (DMSO) • 3. BSEP Assay Uptake Buffer (10 mM HEPES-Tris pH 7.4, 0.1 M KNO3, 12.5 mM Mg(NO3)2, 50 mM sucrose) • 4. BSEP Wash Buffer (10 mM Tris-HCl pH 7.4, 0.1 M KNO3, 50 mM sucrose) • 5. BSEP Blocking Buffer (BSEP Wash Buffer+0.5 mg/mL BSA) • 6. 25 mM Mg-ATP solution • 7. 25 mM AMP solution • 8. Corning Costar 96-well flat-bottom, untreated, white Assay Plate (Corning Cat. No. 3912) • 9. Millipore MultiscreenHTs Filtration Plate, glass fiber FB—1.0/0.65 μm (Cat. No. MSFBN6B10 or glass fiber FC—1.2/0.65 μm (Cat. No. MSFCN6B10) • 10. Millipore MultiscreenHTS Vacuum Manifold (Cat. No. MSVMHTS00) • 11. Probe substrates listed in Table 1 • 12. Reference inhibitors listed in Table 1 • 13. Test articles
• 1. Test system: • a. 96-well flat bottom plate containing a suspension of vesicles and a corresponding 96-well glass fiber filtration plate. • b. Transport experiments were conducted in the Assay Uptake Buffer. • c. Transport experiment was initiated with the addition of Mg-ATP or AMP to appropriate wells. • d. Each condition was run in triplicate wells. • 2. Prepared the 96-well flat-bottom assay plate. • a. Incubated the assay plate with the Blocking Buffer for 60 min at 37 °C with orbital shaking at approximately 90 rpm. (NOTE: This is done to prevent non-specific binding of vesicles to polystyrene assay plate). • b. After 60 min, completely removed the Blocking Buffer from the assay plate. • c. The Assay Uptake Buffer solutions were added to the assay plate wells as follows: • i. For probe substrate transport assays, the Assay Uptake Buffer contained vesicles and the probe substrate at the specified concentration. • ii. For the reference inhibition assay, the Assay Uptake Buffer contained vesicles, the reference inhibitor and the probe substrate at the specified concentration in Table 1. • iii. For the test article assays, Assay Uptake Buffer contained vesicles, the test article and the probe substrate at the specified concentration in Table 1. • 3. Incubate at 37 °C with orbital shaking at approximately 90 rpm for the time period specified in Table 1 of this protocol. • 4. Using the 25 mM Mg-ATP or AMP stocks, Mg-ATP or AMP was added to test wells of flat bottom assay plate to a final concentration of 5 mM. • 5. Incubated at 37 °C with orbital shaking at approximately 90 rpm for the incubation time specified in Table 1 of this protocol. • 6. Prepared the 96-well glass fiber filtration plate: • a. Incubated the filtration plate with the Blocking Buffer for 2 min at room temperature with under no vacuum. • b. Turned on vacuum and allowed Blocking Buffer to filter through plate. • c. With vacuum on, filter plate was washed with ice cold Wash Buffer. • 7. At the end of the specified incubation time indicated in […] of this protocol, vesicle transport was quenched by adding ice cold Wash Buffer to samples in 96-well assay plate. • 8. Mixed assay samples (now diluted in Wash Buffer) with pipette and transfered 175 μL into the 96-well glass fiber filtration plate to separate vesicles from buffer by applying vacuum. • 9. Washed filter plate wells with ice cold Wash Buffer. • 10. Allowed filter plate to dry under vacuum. • 11. Transfered filters to scintillation sample plate and added 700 μL of scintillation fluid to the above samples. • 12. Counted the above samples on a 1450 Microbeta (Perkin-Elmer).
• 1. The amount of substrate was quantified with radiometric detection on a 1450 Microbeta (Perkin-Elmer). • 2. For transport study samples run in triplicate, the mean and standard deviation of the replicates were reported. • 3. […]

In the next data set the target is T2, hLPAR1 (Homo sapiens, UniProt Q92633).
T2 construct: expressed in transfected cells
Kind of data set: Ca2+ Flux Assay (B103 cells stably expressing hLPAR1). Type of data set: cell-based. Particulars: LPA-induced calcium release, Fura-2 AM, compound 20 min at RT. As to the method:
B103 cells stably expressing hLPAR1 were seeded at a density of 1.0×10^5 cells per well in clear flat-bottom black 96-well plates and incubated overnight in complete media. The following day, the cells were pre-incubated in serum-free media for 2 hours prior to ensure cellular equilibration. For the loading a calcium-sensitive fluorescent dye, the cells were treated with a concentration of 5 μM Fura-2 AM dye (Sigma, F1225) in Hank's buffered salt solution (HBSS) supplemented with 20 mM HEPES, […], and 0.3% fatty-acid-free bovine serum albumin for 40 minutes at room temperature (RT). Test compounds, prepared in DMSO, were then added to each well and incubated for 20 minutes at RT. To induce calcium release, a concentration of […] in HBSS supplemented with 20 mM HEPES, and 0.3% fatty-acid-free bovine serum albumin was introduced. Intracellular calcium mobilization was subsequently quantified by monitoring the fluorescence intensity using the Spark® multimode microplate reader (TECAN).
In general terms: A change in cytosolic calcium serves as a functional read-out for many receptors and channels.

In another data set the test system is A2058 cells. Kind of data set: Chemotaxis Assay (LPA-induced migration of A2058 cells). Type of data set: cell-based. Particulars: Homo sapiens, 4 to 8 hours, crystal violet 590 nm. On the procedure: For monitoring the migration of cells, Neuroprobe ChemoTx® System plates ([…], 5.7 mm diameter sites; Gaithersburg, MD, USA) were utilized. To induce cell migrations, a concentration of […] or vehicle in DMEM were loaded to the bottom chamber. A total of 15,000 A2058 cells, which were starved for 24 hr following treated with test compounds or vehicle, were then applied to the upper membrane coated with 0.001% fibronectin. The plate was incubated for 4 to 8 hours to allow cell migration. Following incubation, the plate was dissembled, and the migrated cells were visualized by crystal violet staining. The stained area with crystal violet was quantified by measuring the absorbance at 590 nm and the relative percentage of the control was calculated.

T2 sequence (Q92633 whole entry): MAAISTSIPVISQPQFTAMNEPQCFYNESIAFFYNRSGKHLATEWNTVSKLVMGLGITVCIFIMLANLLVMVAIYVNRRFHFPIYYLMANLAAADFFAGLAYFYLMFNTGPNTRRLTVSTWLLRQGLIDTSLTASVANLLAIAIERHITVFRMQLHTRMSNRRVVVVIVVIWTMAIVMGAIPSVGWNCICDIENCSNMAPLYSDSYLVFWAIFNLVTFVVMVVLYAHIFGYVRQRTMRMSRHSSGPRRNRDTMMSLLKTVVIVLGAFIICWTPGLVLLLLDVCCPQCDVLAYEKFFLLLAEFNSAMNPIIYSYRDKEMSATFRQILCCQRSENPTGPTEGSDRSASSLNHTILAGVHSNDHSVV
T1 sequence (O95342 whole entry): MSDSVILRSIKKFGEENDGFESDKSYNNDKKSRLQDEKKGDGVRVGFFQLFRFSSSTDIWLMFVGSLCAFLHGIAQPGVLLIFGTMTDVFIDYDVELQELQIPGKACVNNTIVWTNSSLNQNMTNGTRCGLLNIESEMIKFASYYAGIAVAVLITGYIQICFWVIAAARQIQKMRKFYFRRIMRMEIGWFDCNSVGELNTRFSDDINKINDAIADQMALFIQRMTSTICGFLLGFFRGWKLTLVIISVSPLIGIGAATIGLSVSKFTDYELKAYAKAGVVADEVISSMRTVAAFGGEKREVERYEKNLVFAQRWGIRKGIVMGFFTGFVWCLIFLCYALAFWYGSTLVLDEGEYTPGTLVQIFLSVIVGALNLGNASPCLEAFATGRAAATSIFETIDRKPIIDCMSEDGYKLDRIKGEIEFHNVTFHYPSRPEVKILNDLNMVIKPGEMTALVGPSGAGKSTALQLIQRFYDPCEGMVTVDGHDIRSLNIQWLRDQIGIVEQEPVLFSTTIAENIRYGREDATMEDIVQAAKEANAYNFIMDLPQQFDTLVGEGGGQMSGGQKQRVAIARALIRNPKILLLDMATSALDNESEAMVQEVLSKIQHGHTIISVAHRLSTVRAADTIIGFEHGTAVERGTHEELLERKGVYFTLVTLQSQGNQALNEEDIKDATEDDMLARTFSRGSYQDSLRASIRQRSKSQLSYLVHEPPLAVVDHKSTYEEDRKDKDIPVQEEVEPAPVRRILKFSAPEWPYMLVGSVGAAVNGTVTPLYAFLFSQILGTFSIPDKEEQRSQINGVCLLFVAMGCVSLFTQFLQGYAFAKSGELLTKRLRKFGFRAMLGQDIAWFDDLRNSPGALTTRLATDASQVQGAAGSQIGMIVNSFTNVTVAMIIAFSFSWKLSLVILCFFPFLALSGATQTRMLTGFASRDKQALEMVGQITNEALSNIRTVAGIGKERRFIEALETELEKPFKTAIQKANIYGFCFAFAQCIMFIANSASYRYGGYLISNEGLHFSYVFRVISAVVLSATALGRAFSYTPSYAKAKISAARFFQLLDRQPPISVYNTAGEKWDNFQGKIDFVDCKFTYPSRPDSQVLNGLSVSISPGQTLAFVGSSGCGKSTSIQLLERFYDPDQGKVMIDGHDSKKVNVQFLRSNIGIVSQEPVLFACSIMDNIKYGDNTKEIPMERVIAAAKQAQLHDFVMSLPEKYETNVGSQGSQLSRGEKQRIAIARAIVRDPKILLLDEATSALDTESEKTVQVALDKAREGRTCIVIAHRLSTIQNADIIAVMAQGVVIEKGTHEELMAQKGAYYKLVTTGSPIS

By inhibition is commonly meant the change of the read-out against control, counted positive when it falls. The IC50 is the concentration at which inhibition is half-maximal. `Cc1ccccc1[C@@H](C)OC(=O)Nc1c(C)noc1C1CC2(C1)CN(c1ccc(C3(C(=O)NS(C)(=O)=O)CC3)cc1)C2` [Compound 7]: the inhibition at 0.25 h, 10 µM on BSEP was in the range of 75 to 100%. For the same compound, the IC50 on hLPAR1 is under 10 nM; in the data set with A2058 cells it was under 100 nM.

In the case of `Cc1noc(C2CC3(C2)CN(c2ccc(C4(C(=O)NS(C)(=O)=O)CC4)cc2)C3)c1NC(=O)O[C@H](C)c1ccccc1` [Compound 9], at BSEP, the inhibition at 0.25 h, 10 µM is 50 to 75%. Further, the IC50 at hLPAR1 was under 10 nM; in the data set on A2058 cells, 100 to 500 nM.

Regarding `C[C@@H](OC(=O)Nc1c(C2CCN(c3ccc(C4(C(=O)NS(=O)(=O)CCC(=O)O)CC4)cc3)CC2)nnn1C)c1ccccc1` [Compound 17], on BSEP, the inhibition at 0.25 h, 10 µM is at most 25%. For the same compound, the IC50 on hLPAR1 was under 10 nM; in the data set on A2058 cells it was 500 to 5000 nM.

For `COc1ccc(C2CCN(c3ccc(C4(C(=O)O)CC4)cc3)CC2)c(NC(=O)O[C@H](C)c2ccccc2)c1` [Compound 19, (R)-1-(4-(4-(4-methoxy-2-(((1-phenylethoxy)carbonyl)amino)phenyl)piperidin-1-yl)phenyl)cyclopropane-1-carboxylic acid], at BSEP, the inhibition at 0.25 h, 10 µM was in the range of 50 to 75%. In addition, the IC50 at hLPAR1 is under 10 nM; in the data set with A2058 cells it was under 100 nM.

In the case of `Cc1noc(C2CCN(c3ccc(C4(C(=O)O)CC4)cc3)CC2)c1C(O)CCCc1ccccc1` (stereo not drawn) [Compound 20], the inhibition at 0.25 h, 10 µM at BSEP lay within 75 to 100%. Moreover, the results for the half-inhibitory concentration (IC50) on hLPAR1 and with A2058 cells were 10 to 200 nM and 100 to 500 nM, respectively.

Turning to `Cc1ccccc1[C@@H](C)OC(=O)Nc1c(C)noc1C1CC2(C1)CN(c1ccc(C3(C(=O)O)CC3)cc1)C2` [Compound 33, 1-(4-{6-[3-methyl-4-({[(1R)-1-(2-methylphenyl)ethoxy]carbonyl}amino)-1,2-oxazol-5-yl]-2-azaspiro[3.3]heptan-2-yl}phenyl)cyclopropane-1-carboxylic acid], the inhibition at 0.25 h, 10 µM at BSEP fell in the range of 75 to 100%. In addition, the half-inhibitory concentration (IC50) was under 10 nM on hLPAR1 and under 100 nM with A2058 cells.

On to `CCc1ccccc1[C@@H](C)OC(=O)Nc1c(C)noc1C1CCN(c2ccc(C3(C(=O)NS(=O)(=O)CCC(=O)O)CC3)cc2)CC1` [Compound 37, 3-({[1-(4-{4-[4-({[(1R)-1-(2-ethylphenyl)ethoxy]carbonyl}amino)-3-methyl-1,2-oxazol-5-yl]piperidin-1-yl}phenyl)cyclopropyl]formamido}sulfonyl)propanoic acid], for which the inhibition at 0.25 h, 10 µM at BSEP lay in the range of 50 to 75%. The IC50 on hLPAR1 was under 10 nM; in the data set on A2058 cells it was under 100 nM.

`Cc1noc(C2CC3(C2)CN(c2ccc(C4(C(=O)O)CC4)cc2)C3)c1NC(=O)O[C@H](C)c1ccccc1` [Compound 54, 1-(4-{6-[3-methyl-4-({[(1R)-1-phenylethoxy]carbonyl}amino)-1,2-oxazol-5-yl]-2-azaspiro[3.3]heptan-2-yl}phenyl)cyclopropane-1-carboxylic acid]: the inhibition at 0.25 h, 10 µM at BSEP was 25 to 50%. Besides, the figures for the concentration for half-maximal inhibition (IC50) at hLPAR1 and in the data set on A2058 cells were 10 to 200 nM and under 100 nM, respectively.

For `C[C@@H](OC(=O)Nc1c(C2CCN(c3ccc(C4(C(=O)O)CC4)cc3)CC2)cnn1C)c1ccccc1` [Compound 55], the inhibition at 0.25 h, 10 µM on BSEP is 25 to 50%. Further, the IC50 was in the range of 10 to 200 nM at hLPAR1 and 100 to 500 nM in the data set with A2058 cells.

For `C[C@@H](OC(=O)Nc1c(C2CCN(c3ccc(C4(C(=O)NS(=O)(=O)CC(=O)O)CC4)cc3)CC2)nnn1C)c1ccccc1` [Compound 58, 2-[[1-[4-[4-[1-methyl-5-[[(1R)-1-phenylethoxy]carbonylamino]triazol-4-yl]-1piperidyl]phenyl]cyclopropanecarbonyl]sulfamoyl]acetic acid], at BSEP, the inhibition at 0.25 h, 10 µM is at most 25%. For the same compound, the IC50 on hLPAR1 fell in the range of 10 to 200 nM; in the data set with A2058 cells, 100 to 500 nM.

Consider `C[C@@H](OC(=O)Nc1c(C2CCN(c3ccc(C4(C(=O)NS(=O)(=O)CCO)CC4)cc3)CC2)nnn1C)c1ccccc1` [Compound 59], for which the inhibition at 0.25 h, 10 µM at BSEP is at most 25%. Besides, the figures for the half-maximal inhibitory concentration (IC50) at hLPAR1 and with A2058 cells were under 10 nM and 100 to 500 nM, respectively.

Turning to `C[C@@H](OC(=O)Nc1c(C2CCN(c3ccc(C4(C(=O)O)CC4)cc3)CC2)nnn1C)c1ccccc1` [Compound 60, (R)-1-(4-(4-(1-methyl-5-(((1-phenylethoxy)carbonyl)amino)-1H-1,2,3-triazol-4-yl)piperidin-1-yl)phenyl)cyclopropane-1-carboxylic acid], the inhibition at 0.25 h, 10 µM at BSEP is at most 25%. For the same compound, the concentration for half-maximal inhibition (IC50) is 10 to 200 nM on hLPAR1 and 100 to 500 nM in the data set on A2058 cells.

As to `Cc1cc(C2(C(=O)O)CC2)ccc1N1CCC(c2onc(C)c2NC(=O)O[C@H](C)c2ccccc2)CC1` [Compound 61], the inhibition at 0.25 h, 10 µM on BSEP lay within 50 to 75%. Besides, the IC50 on hLPAR1 was under 10 nM; with A2058 cells it was under 100 nM.

For the compound `COc1cc(C2(C(=O)O)CC2)ccc1N1CCC(c2onc(C)c2NC(=O)O[C@H](C)c2ccccc2)CC1` [Compound 63, (R)-1-(3-methoxy-4-(4-(3-methyl-4-(((1-phenylethoxy)carbonyl)amino)isoxazol-5-yl)piperidin-1-yl)phenyl)cyclopropane-1-carboxylic acid], at BSEP, the inhibition at 0.25 h, 10 µM is at most 25%. The IC50 at hLPAR1 is under 10 nM; with A2058 cells, under 100 nM.

Turning to `CNC(=O)C1(c2ccc(N3CCC(c4onc(C)c4NC(=O)O[C@H](C)c4ccccc4)CC3)cc2)CC1` [Compound 65], at BSEP, the inhibition at 0.25 h, 10 µM fell in the range of 50 to 75%. The half-inhibitory concentration (IC50) at hLPAR1 lay within 10 to 200 nM; in the data set on A2058 cells it was 100 to 500 nM.

As to `Cc1noc(C2CCN(c3ccc(C4(C(=O)NS(=O)(=O)C(C)C(=O)O)CC4)cc3)CC2)c1NC(=O)O[C@H](C)c1ccccc1` (stereo partly drawn) [Compound 71], the inhibition at 0.25 h, 10 µM at BSEP is 25 to 50%. Further, the concentration for half-maximal inhibition (IC50) on hLPAR1 was under 10 nM; in the data set on A2058 cells, under 100 nM.

Consider `Cc1noc(C2CCN(c3ccc(C4(C(=O)NS(=O)(=O)C(C)CC(=O)O)CC4)cc3)CC2)c1NC(=O)O[C@H](C)c1ccccc1` (stereo partly drawn) [Compound 72], for which the inhibition at 0.25 h, 10 µM at BSEP is at most 25%. The IC50 on hLPAR1 was under 10 nM; with A2058 cells, under 100 nM.

For the origin of these results see US20260356824A1, “COMPOUNDS FOR TREATING FIBROTIC DISEASES” (Meta-Immue Inc., priority 2023, published 2026).
